Data from US20100298285A1, “Biclycloheteroaryl Compounds as P2x7 Modulators and Uses Thereof” (priority 2006, published 2010).

The compounds below were run on IL-1β release, THP-1 cells (assay: IL-1β release assay in differentiated THP-1 cells stimulated with BzATP (Example 9)). Conditions: Homo sapiens; 0.1 μM compound ("*" symbols); differentiated THP-1 cells, 250 uM BzATP; read-out: IL-1β% Inhib. @ 0.3 or 0.1 μM.
Assay type: cell-based
Outline: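 THP-1 cells differentiated 16 h with 100 ng/mL LPS + 100 ng/mL IFN-γ, re-primed 2 h with fresh LPS 100 ng/mL, pretreated 30 min with compound, then stimulated with BzATP 250 uM final for 45 min. Supernatant IL-1β by ELISA; background-adjusted % inhibition, IC50 from four-parameter logistic fit.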

`COc1cccc(S(=O)(=O)N2CCc3c(ccc(Cl)c3NC(=O)Cc3ccc(C(F)(F)F)cc3)C2)c1` [Compound 3030] and `Cc1cccc(S(=O)(=O)N2CCc3c(ccc(Cl)c3NC(=O)Cc3ccc(C(F)(F)F)cc3)C2)c1` [Compound 3024] fall in the same range of inhibition at 0.1 µM: 0 to 25% for the first, 0 to 25% for the second.

`O=C(Cc1ccc(C(F)(F)F)cc1)Nc1c(Cl)ccc2c1CCN(S(=O)(=O)c1ccccc1C(F)(F)F)C2` [Compound 3031] and `O=C(Cc1ccc(C(F)(F)F)cc1)Nc1c(Cl)ccc2c1CCN(S(=O)(=O)c1cc(Cl)ccc1F)C2` [Compound 3018] fall in the same range of inhibition at 0.1 µM: 0 to 25% for the first, 0 to 25% for the second.

`O=C(Cc1ccc(C(F)(F)F)cc1)Nc1c(Cl)ccc2c1CCN(S(=O)(=O)c1ccc(F)c(F)c1)C2` [Compound 3005] was tested, and the inhibition at 0.1 µM was 0 to 25%.

Same assay, conditions: Homo sapiens; 0.3 μM compound ("+" symbols); differentiated THP-1 cells, 250 uM BzATP; read-out: IL-1β% Inhib. @ 0.3 or 0.1 μM

`O=C(Cc1ccc(C(F)(F)F)c(F)c1)Nc1c(Cl)ccc2c1CCN(C(=O)Cc1ccc(F)cc1)C2` [Compound 3083] and `O=C(Cc1ccc(C(F)(F)F)c(F)c1)Nc1c(Cl)ccc2c1CCN(C(=O)c1cccc(Cl)c1)C2` [Compound 3093] fall in the same range of inhibition at 0.3 µM: 0 to 25% for the first, 0 to 25% for the second.

`Cc1ccc(F)c(C(=O)N2CCc3c(ccc(Cl)c3NC(=O)Cc3cccc(C(F)(F)F)c3F)C2)c1Cl` [Compound 3171] and `O=C(Cc1cccc(C(F)(F)F)c1F)Nc1c(Cl)ccc2c1CCN(C(=O)c1ccc(F)cc1F)C2` [Compound 3175] fall in the same range of inhibition at 0.3 µM: 0 to 25% for the first, 0 to 25% for the second.

First: CC(Oc1ccccc1)C(=O)N1CCc2c(ccc(Cl)c2NC(=O)Cc2ccc(C(F)(F)F)c(F)c2)C1 (stereo not drawn) [Compound 3135]
Second: O=C(Cc1cccc(C(F)(F)F)c1F)Nc1c(Cl)ccc2c1CCN(C(=O)COc1ccccc1)C2 [Compound 3152]
The inhibition at 0.3 µM of the first is higher: 26 to 50% for the first, 0 to 25% for the second.

`Cc1cccc(C(=O)N2CCc3c(ccc(Cl)c3NC(=O)Cc3cccc(C(F)(F)F)c3F)C2)c1` [Compound 3140] and `COc1cccc(C(=O)N2CCc3c(ccc(Cl)c3NC(=O)Cc3cccc(C(F)(F)F)c3F)C2)c1` [Compound 3153] fall in the same range of inhibition at 0.3 µM: 0 to 25% for the first, 0 to 25% for the second.

Compared with `O=C(Cc1ccc(C(F)(F)F)c(F)c1)Nc1cccc2c1CCN(CC(O)c1ccc(F)cc1)C2` (stereo not drawn) [Compound 3065, N-{2-[2-(4-Fluoro-phenyl)-2-hydroxy-ethyl]-1,2,3,4-tetrahydro-isoquinolin-5-yl}-2-(3-fluoro-4-trifluoromethyl-phenyl)-acetamide], `Cc1ncccc1C(=O)N1CCc2c(cccc2NC(=O)Cc2ccc(C(F)(F)F)c(F)c2)C1` [Compound 3044] is lower in inhibition at 0.3 µM: 51 to 75% for the first, 0 to 25% for the second.

`O=C(Cc1cccc(C(F)(F)F)c1F)Nc1c(Cl)ccc2c1CCN(C(=O)c1cccc3ccccc13)C2` [Compound 3185] and `CC(C)C(=O)N1CCc2c(ccc(Cl)c2NC(=O)Cc2cccc(C(F)(F)F)c2F)C1` [Compound 3150] fall in the same range of inhibition at 0.3 µM: 0 to 25% for the first, 0 to 25% for the second.

First: O=C(Cc1ccc(C(F)(F)F)c(F)c1)Nc1c(Cl)ccc2c1CCN(C(=O)C1CC1)C2 [Compound 3102]
Second: COc1cc(OC)cc(C(=O)N2CCc3c(ccc(Cl)c3NC(=O)Cc3cccc(C(F)(F)F)c3F)C2)c1 [Compound 3149]
The inhibition at 0.3 µM of the first is lower: 0 to 25% for the first, 26 to 50% for the second.

Same assay, conditions: Homo sapiens; THP-1 cells, BzATP 250 uM, four parameter logistic fit

Going from `O=C(Cc1ccc(C(F)(F)F)c(F)c1)Nc1cccc2c1CCN(CC(O)c1ccc(F)cc1)C2` (stereo not drawn) [Compound 3065, N-{2-[2-(4-Fluoro-phenyl)-2-hydroxy-ethyl]-1,2,3,4-tetrahydro-isoquinolin-5-yl}-2-(3-fluoro-4-trifluoromethyl-phenyl)-acetamide] to `O=C(Cc1ccc(C(F)(F)F)c(F)c1)Nc1cccc2c1CCN(CC(O)Cc1ccccc1)C2` (stereo not drawn) [Compound 3257], the IC50 rises from 206 nM to 425 nM (2.1-fold). The first is the more potent here.

Going from `COc1ccc2c(c1NC(=O)Cc1ccc(C(F)(F)F)c(F)c1)CCN(C(=O)C(C)(C)CO)C2` [Compound 3479, 2-(3-Fluoro-4-trifluoromethyl-phenyl)-N-[2-(3-hydroxy-2,2-dimethyl-propionyl)-6-methoxy-1,2,3,4-tetrahydro-isoquinolin-5-yl]-acetamide] to `COc1ccc2c(c1NC(=O)Cc1ccc(C(F)(F)F)c(F)c1)CCN(C(=O)C1(O)CCCCC1)C2` [Compound 3477, 2-(3-Fluoro-4-trifluoromethyl-phenyl)-N-[2-(1-hydroxy-cyclohexanecarbonyl)-6-methoxy-1,2,3,4-tetrahydro-isoquinolin-5-yl]-acetamide], the IC50 rises from 171 nM to 280 nM (1.6-fold).

For `Cc1ncccc1C(=O)N1CCc2c(cccc2NC(=O)Cc2ccc(C(F)(F)F)c(F)c2)C1` [Compound 3044], the IC50 was > 1000 nM.
